{"source": "patent US20250302863A1", "about": "“USE OF THBS1 INHIBITOR FOR OVERCOMING DRUG RESISTANCE IN CANCER” (KOREA ADVANCED INSTITUTE OF SCIENCE AND TECHNOLOGY, priority 2022, published 2025)", "format_in_all_cases": "cell-based, Human", "key": {"[1]": {"tested_on": "THBS1 mRNA", "assay": "THBS1 knockdown by shRNA, mRNA level by qRT-PCR", "conditions": "lentiviral shRNA, FIG. 8A", "method": "HEK 293T cells were used to transfect shRNA targeting THBS1 and an overexpression vector. In addition to shRNA (shTHBS1; […]; SEQ ID NO: 1) and an overexpression vector (pDNA (VB220725-1808zjh); […]. Infected cells were selected using 1 μg/ml of puromycin for at least one week.\n(§1) Total RNA was extracted from cells using a total RNA extraction kit from Intron Biotechnology. Genomic DNA was removed by treatment with RNase-free DNase I. Complementary DNA (cDNA) was synthesized using a DiaStar RT kit of Solgent. In addition, RT-PCR was performed using Veriti 96-well Thermal Cycler of Applied Biosystems, and real-time polymerase chain reaction (qRT-PCR) was performed using a QuantStudio 5 real-time PCR system, an SYBR master mix (Genet Bio), and primers.\nAt this time, when NCI-H1792 and NCI-H1793 cell lines, lung cancer cell lines with drug resistance to APR-246, were treated with THBS1-targeting shRNA (SEQ ID NO: 1; […]) as a THBS1 inhibitor, the THBS1 mRNA expression level was reduced (FIG. 8A). In addition, when THBS1 was overexpressed in NCI-H2009 and HCC827, lung cancer cell lines with high drug responsiveness to APR-246, it was confirmed that the THBS1 mRNA expression level was increased (FIG. 8B)."}, "[2]": {"tested_on": "NCI-H1793", "assay": "Cell viability by APR-246 treatment concentration (IncuCyte, crystal violet)", "conditions": "NCI-H1793 p53-mutant lung cancer cells, 4 to 5 days, FIG. 7A", "method": "(§2) Human lung cancer cell lines NCI-H1793, NCI-H2009, and HCC827 were purchased from the Korea Cell Line Bank (KCLB), and NCI-H1792 was purchased from the American Type Culture Collection (ATCC). NCI-H1793 and HCC827 were cultured in a RPMI 1640 medium supplemented with 10% fetal bovine serum (FBS) and antibiotics (100 U/ml penicillin, 100 μg/ml of streptomycin, and 0.25 μg/ml of Fungizone). NCI-H1792 and NCI-H2009 were cultured with the same supplements in a DMEM medium. All the cell lines were cultured at 37° C. in an incubator containing 5% carbon dioxide.\n(§3) Dimethyl sulfoxide (DMSO) was purchased from Sigma-Aldrich and was used as a drug control. APR-246 and TGFβ1 protein were purchased from MedChemExpress (MCE). APR-246 was used by diluting 25 mg to a final concentration of 10 mM, and the cells were treated for 4 to 5 days when checking the cell viability and for 24 hours when performing a Western blot experiment. In addition, TGFβ1 at a concentration of 10 μg/ml was a TGF-beta pathway activator, and drug-sensitive cell lines were seeded and treated with 5 ng/ml of TGFβ1 24 hours later, and the cells were harvested 24 hours later.\n(§4) Cells were seeded in a 96-well plate at 3 to 5×10^3 cells per well. A drug was then treated within 24 hours after seeding. After drug treatment, cell growth was recorded every 3 hours using IncuCyte ZOOM for 4 to 5 days. Cell viability was analyzed using IncuCyte ZOOM 2016A software. After 4 to 5 days, the cells were stained with 1% crystal violet for 30 minutes at room temperature and washed with distilled water to confirm the amount of viable cells.\n(§5) The present inventors confirmed the cell viability according to the APR-246 drug treatment concentration for lung cancer cell lines NCI-H1793, NCI-H1792, HCC827, and NCI-H2009, which were known to have p53 mutations. At this time, APR-246 drug-sensitive cell lines and resistant cell lines were distinguished based on z-score normalized IC50 values."}, "[3]": {"tested_on": "NCI-H1792", "assay": "Cell viability by APR-246 treatment concentration (IncuCyte, crystal violet)", "conditions": "NCI-H1792 p53-mutant lung cancer cells, 4 to 5 days, FIG. 7A", "method": "as §2, §3, §4, §5"}, "[4]": {"tested_on": "HCC827", "assay": "Cell viability by APR-246 treatment concentration (IncuCyte, crystal violet)", "conditions": "HCC827 p53-mutant lung cancer cells, 4 to 5 days, FIG. 7B", "method": "as §2, §3, §4, §5"}, "[5]": {"tested_on": "NCI-H2009", "assay": "Cell viability by APR-246 treatment concentration (IncuCyte, crystal violet)", "conditions": "NCI-H2009 p53-mutant lung cancer cells, 4 to 5 days, FIG. 7B", "method": "as §2, §3, §4, §5"}, "[6]": {"tested_on": "TGFβ1 mRNA", "assay": "TGFβ1 mRNA expression after TGF-beta pathway activation in sensitive cell lines", "conditions": "two sensitive cell lines, 5 ng/ml TGFβ1 24 hours after seeding, harvested 24 hours later, FIGS. 10D and 10E", "method": "as §3, §1"}, "[7]": {"tested_on": "THBS1", "assay": "THBS1 expression after TGF-beta pathway activation in sensitive cell lines", "conditions": "two sensitive cell lines, 5 ng/ml TGFβ1 24 hours after seeding, harvested 24 hours later, FIGS. 10D and 10E", "method": "as §3, §1"}}}
{"molecule": "THBS1-targeting shRNA: short hairpin RNA targeting THBS1, GTAGGTTATGATGAGTTTAAT (SEQ ID NO: 1), delivered by lentivirus (guide GUAGGUUAUGAUGAGUUUAAU)", "values": [{"measurement": "THBS1 mRNA expression level", "setting": "[1]; NCI-H1792 cells", "result": "reduced"}, {"measurement": "THBS1 mRNA expression level", "setting": "[1]; NCI-H1793 cells", "result": "reduced"}]}
{"molecule": "COCC1(CO)C(=O)C2CCN1CC2", "note": "(centres unmarked) [APR-246]", "values": [{"measurement": "drug response (cell viability)", "setting": "[2]", "result": "hardly responded"}, {"measurement": "drug response (cell viability)", "setting": "[3]", "result": "hardly responded"}, {"measurement": "drug response (cell viability)", "setting": "[4]", "result": "clear response"}, {"measurement": "drug response (cell viability)", "setting": "[5]", "result": "clear response"}]}
{"molecule": "drug that activated the TGF-beta signaling pathway: TGFβ1 protein from MedChemExpress, used as TGF-beta pathway activator at 5 ng/ml", "values": [{"measurement": "mRNA expression level of TGFβ1", "setting": "[6]", "result": "increased"}, {"measurement": "expression level of THBS1", "setting": "[7]", "result": "increased"}]}
